What was measured:
[1] = Beef bouillon taste evaluation by a panel of experienced tasters
Procedure: A beef bouillon was prepared using bouillon cubes obtained from a local supermarket.

[2] = Mango-flavoured beverage taste evaluation by a panel of experienced tasters; details: 0.5 ppm dosed to mango drink (mango flavour 0.05% w/w, mango juice 0.18% w/w, sugar 8% w/w, citric acid 0.1% w/w)
Procedure: A mango-flavoured beverage was prepared using a standard mango flavour (0.05% w/w), mango juice (0.18% w/w), sugar (8% w/w) and citric acid (0.1% w/w).

[3] = 40 ppb added to beef bouillon from bouillon cubes
[4] = 0.5 ppm dosed to beef bouillon from bouillon cubes

SMILES	taste of the bouillon versus the reference (panel agreement) [1, 3]	taste of the mango drink versus the reference drink (panel agreement) [2]	taste of the bouillon versus the reference (panel agreement) [1, 4]
CCCCCCCCCCCCCCCCCCCC(=O)NCCO [Example 9, N-(2-hydroxyethyl)eicosanamide]	tasted more fatty, beefier and smoky, tasted more fully and had more body than the reference	–	–
CCCCCCCC/C=C\CCCCCCCC(=O)NCCC(C)C [Example 4, N-isopentyloleamide]	–	tasted somewhat more astringent and fruity and had more body	–
CC/C=C\C/C=C\C/C=C\CCCCCCCC(=O)NCCO [Example 8, N-(2-hydroxyethyl)linolenamide]	tasted more fatty, and slightly more salty than the reference	–	–
CCCCCCCC/C=C\CCCCCCCC(=O)NCCCC(N)=O [Example 6, N-(4-amino-4-oxobutyl)oleamide]	–	–	tasted more full and had more mouthfeel than the reference
CCCCCCCC/C=C\CCCCCCCC(=O)NCCCSC [Example 2, N-(3-(methylthio)propyl)oleamide]	–	tasted more tropical and more juicy than the reference drink	–
CCCCC/C=C\C/C=C\C/C=C\C/C=C\CCCC(=O)NCCO [Example 10, N-(2-hydroxyethyl)arachidonamide]	tasted saltier, sweeter, more fatty and slightly more umami than the reference, and had more mouthfeel	–	had more mouthfeel and tasted more salty and more umami than the reference
